Assay results taken from US20230310427A1, “NEW THERAPEUTIC USE OF RILPIVIRINE” (UNIVERSITY OF SOUTH AUSTRALIA, priority 2020, published 2023).

Experiments:
Format in all cases: cell-based
PC3 cells = assay: Cell cycle analysis (flow cytometry); settings: 48 hour treatment; p53 mutant
Method: (§1) The effect of Rilpivirine on cell cycle distribution in different cancer cell lines was evaluated by flow cytometric analysis. Briefly, cells were seeded in 6-well plates at a density of 6 × 10^4 cells/well. All plates were incubated overnight at 37° C. in a 5% CO2 incubator. Following the incubation, the test compounds (Rilpivirine (Ril) and comparators, Alisertib (Ali; a known Aurora A inhibitor) and Etravirine (Etra; 4-[[6-amino-5-bromo-2-[(4-cyanophenyl)amino]-4-pyrimidinyl]oxy]-3,5-dimethylbenzonitrile - a structurally similar NNRTI drug compound sold under the brand name Intelence® (Janssen Therapeutics)) were added to individual wells and the plates were incubated at same condition for 24 h, 48 h or 72 h. Subsequently, the medium was removed from the wells and transferred into fluorescence-activated cell sorting (FACS) tubes. The adherent cells remaining were trypsinised, re-suspended in media and transferred into the FACS tubes. Cells were centrifuged, fixed with cold 70% ethanol for 15 min and pelleted. The pelleted cells were then re-suspended in 200 µL propidium iodide (PI) solution (50 µg/mL propidium iodide, 0.1 mg/mL ribonuclease A, 0.1% sodium citrate, 0.1% triton X-100) and incubated in the dark for 1.5 h at room temperature. Following the incubation, 200 µL PBS was added. Samples were assessed using a flow cytometer (Cytoflex; Beckman Coulter Inc, Brea, CA, United States of America) and data were analysed using the Cytexpert software.

U-937 cells = assay: Cell cycle analysis (flow cytometry); settings: various concentrations, 24 hour
Method: as §1

[1] = system: p53 wild-type (WT) A2780 cells; assay: Cell cycle analysis (flow cytometry); settings: 24, 48 and 72 hour
Method: as §1

HL-60 cells = assay: Apoptosis analysis (Annexin-V FITC/PI); settings: 48 hour treatment, various concentrations
Method: (§2) Instead of ethanol fixation, the cell number of each sample was counted, and the cells were diluted to 1×10^5 cells with 1 mL PBS in fresh FACS tubes. Cells were centrifuged and then re-suspended in 1 mL of cold PBS (whole step repeated twice). Pelleted cells were resuspended in 100 µL binding buffer, and subsequently 3 µL of Annexin V and 3 µL of PI were added to all tubes and incubated in the dark for 15 min at room temperature. Following the incubation period, 200 µL of 1 x binding buffer was added. Samples were assessed using a flow cytometer (Cytoflex) within 1 h of staining and data were analysed using Cytexpert software.

Jurkat cells = assay: Apoptosis analysis (Annexin-V FITC/PI); settings: 48 hour treatment, various concentrations
Method: as §2

NB4 cells = assay: Apoptosis analysis (Annexin-V FITC/PI); settings: 48 hour treatment, various concentrations
Method: as §2

p53 WT A2780 cells = assay: Apoptosis analysis (Annexin-V FITC/PI); settings: 48 hour treatments, various concentrations
Method: as §2

cyclin D1 in A2780 cells = assay: Western blot, cell cycle regulatory proteins; settings: 24 hour, increasing amounts
Method: (§3) For Western blotting, cells (8×10^5) were seeded in a culture dish with 10 mL medium and incubated overnight at 37° C., 5% CO2. Untreated and compound-treated cells were lysed using phosphate lysis buffer and protease inhibitors. The protein concentration of each sample was determined by Bio-Rad DC™ protein assay (Bio-Rad Laboratories, Hercules, CA, United States of America). The protein was deactivated at 95° C. for 5 min and then resolved on 4-20% polyacrylamide gels by electrophoresis. Proteins were transferred to polyvinylidene difluoride (PDVF) membrane and blocked for 1 h with 10% skimmed milk (SM) in Tris-buffered saline and Tween (TBST). After adding primary antibody, the membranes were incubated overnight on a rocker in a 4° C. cold room. The following day, membranes were washed in TBST (4×20 min), incubated for at least 1 h at room temperature with the appropriate horseradish peroxidase conjugated secondary antibody. Following this, the blots were washed with TBST (4×20 min) again. The blots were then treated with Western blotting detection reagent and the band intensity was determined using a Bio-Rad ChemiDoc™ MP imaging system (Bio-Rad Laboratories). All the antibodies used for protein detection were from Cell Signaling Technology (Danvers, MA, United States of America). The primary and secondary antibodies used were obtained from Cell Signalling Technology (Danvers, MA, United States of America).

p21 in A2780 cells = assay: Western blot, cell cycle regulatory proteins; settings: 24 hour, increasing concentration
Method: as §3

p53 in A2780 cells = assay: Western blot, cell cycle regulatory proteins; settings: 24 hour, increasing concentration
Method: as §3

[2] = system: phosphorylated retinoblastoma (Rb) protein in A2780 cells; assay: Western blot, cell cycle regulatory proteins; settings: 24 hour, increasing amounts
Method: as §3

[3] = system: cleavage of PARP in p53 WT A2780 cells; assay: Western blot, PARP cleavage; settings: 48 hour treatments, various concentrations
Method: as §3, with “The primary and secondary antibodies used were obtained from Cell Signalling Technology (Danvers, MA, United States of America).” left out

bc1-2 = assay: Western blot of cell lysates, apoptosis markers; settings: increasing concentrations; data not shown
Method: as §3, with “The primary and secondary antibodies used were obtained from Cell Signalling Technology (Danvers, MA, United States of America).” left out

[4] = system: cleaved PARP (poly (ADP-ribose) polymerase); assay: Western blot of cell lysates, apoptosis markers; settings: increasing concentrations; data not shown
Method: as §3, with “The primary and secondary antibodies used were obtained from Cell Signalling Technology (Danvers, MA, United States of America).” left out

[5] = system: cyclin D1 mRNA in A2780 cells; assay: RT-qPCR; settings: 24 hours
Method: (§4) The expression of different genes at the mRNA level was assayed by RT-qPCR. Briefly, cells (1×10^6) were seeded in 10 cm tissue culture plates and treated with compounds after having been cultured overnight at 37° C., 5% CO2. RNA was extracted using the High Pure RNA Isolation Kit (Roche Applied Science, Castle Hill, NSW, Australia) according to the manufacturer’s instructions. The concentration of RNA in each sample was determined using a NanoDrop® ND1000 spectrophotometer (ThermoFisher Scientific, Waltham, MA, United States of America). 1 µg of RNA was used in a 20 µL reverse transcription reaction using a Transcriptor First Strand cDNA Synthesis Kit (Roche Applied Science). RT-qPCR was completed using duplicate samples with cDNA using SYBR Green I dye (Roche Applied Science) and performed using Light Cycler LC96 (Roche Applied Science, Penzberg, Germany). GAPDH mRNA was used as a reference sequence and data was analysed using Bio-Rad CFX manager version 3.1.

p53 mRNA in A2780 cells = assay: RT-qPCR; settings: 24 hours
Method: as §4

In the case of `Cc1cc(/C=C/C#N)cc(C)c1Nc1ccnc(Nc2ccc(C#N)cc2)n1` [Rilpivirine, 4-[[4-[4-[(E)-2-cyanoethenyl]-2,6-dimethylanilino]pyrimidin-2-yl]amino]benzonitrile], the cell cycle arrest (PC3 cells) is reported as “induce G2/M arrest”, the cell cycle arrest (U-937 cells) is reported as “arrests both of these cell lines in the G2/M phase in a dose-dependent manner” and the cell cycle arrest ([1]; 10 µM) is reported as “arrests the cells in the G1 phase”. For the same molecule, the cell cycle distribution ([1]; 20 µM) was “increased number of cells accumulated in Sub-G1 phase”, the induction of apoptosis (HL-60 cells) was “induces apoptosis in all of these cell lines in a dose-dependent manner” and the induction of apoptosis (Jurkat cells) was “induces apoptosis in all of these cell lines in a dose-dependent manner”. For the same molecule, the induction of apoptosis (NB4 cells) was “induces apoptosis in all of these cell lines in a dose-dependent manner”, the induction of apoptosis (p53 WT A2780 cells) was “induces apoptosis in this cell line in a dose-dependent manner” and the “amount of cyclin D1” value (cyclin D1 in A2780 cells) was “decrease”. The p21 protein (p21 in A2780 cells) was “induced its target gene p21”, the “expression of p53 protein” value (p53 in A2780 cells) was “increase in the expression of p53” and the “amount of phosphorylated Rb protein” value [2] was “decrease”. The “cleavage of PARP” value [3] was “apoptosis is associated with cleavage of PARP”, the “bc1-2 level in cell lysates” value (bc1-2) was “downregulation of bc1-2” and the “cleaved PARP in cell lysates” value [4] was “appearance in the cell lysates of cleaved PARP”. The “cyclin D1 mRNA” value [5] was “decrease in cyclin D1mRNA was observed in a dose-dependent manner”, the “p53 mRNA expression” value (p53 mRNA in A2780 cells; 20 µM) was “dramatic increase in p53 expression” and the “p53 mRNA expression” value (p53 mRNA in A2780 cells; increasing concentration) was “upregulated p53 expression”.
